Experimental data as given in US6403788B1, “Non-genotoxic metalloporphyrins as synthetic catalytic scavengers of reactive oxygen species” (Eukarion, Inc., priority 2000, dated 2002).

Tests used:
[1] = Peroxidase activity, ABTS oxidation; type: biochemical; details: 10 μM compound, 200 μM hydrogen peroxide, 500 μM ABTS, pH 8.1, 740 nm
Experimental: Peroxidase activity was measured by incubating 10 μM compound, 200 μM hydrogen peroxide and 500 μM ABTS in 50 mM sodium phosphate, pH 8.1. The rate of ABTS oxidation was monitored at 740 nm and initial rates (change in absorbance per min.) determined.

[2] = tested on: ΦX 174 DNA Plasmid (Form I); experiment: Cleavage of ΦX 174 DNA plasmid (form I), activation with ascorbate in the presence of air; type: biochemical, phage ΦX 174; details: DNA 3.5 nM, Asc. 1 mM
From the text: (§1) The DNA cleavage activity was quantified in terms of number of single-strand breaks per DNA molecule according to the equation […], Io=% form I (supercoiled DNA) in the DNA control, and I=% form I in the experiment (see Bernadou et al, Biochemistry, 28: 7268-7275, (1989)). This assay is very sensitive and is able to detect very low levels of DNA activity. S values less than S=1.0 are indicative of very low DNA cleavage activity when the compounds are at a concentration of equal to or less than 1000 nM and KHSO5 is present at a concentration of equal to or less than 100 μM.
(§2) ΦX 174 DNA digestion conditions for standard experiments were as follows: commercially available DNA was diluted to 50 μg/mL in phosphate buffer (10 mM, pH 7.5). The reaction involved 5 μL of ΦX 174 DNA (50 μg/mL, 74.8 μM in base pairs), 5 μL of 40 mM phosphate buffer, pH 7.5 with 400 mM NaCl, 5 μL of metalloporphyrin in double-distilled water or 5 μL of iron-bleomycin complex in double-distilled water, and 5 μL of KHSO5 or 5 μL of H2O2 or 5 μL of ascorbate in double-distilled water. Preincubation of DNA and metalloporphyrins or iron-bleomycin complex was performed for about 15 min. The digestion time in the presence of KHSO5 was 10 min, of H2O2 was 30 min and of ascorbate was 30 min at 20° C. DNA cleavage was monitored by agarose gel electrophoresis. Reactions with KHSO5 were first quenched by 2 μL of 100 mM Hepes buffer, pH 8. In all cases, reactions were quenched by 5 μL of a stopping reagent. The stopping reagent consisted of 250 mM Hepes buffer, pH 7.4, containing 75% glycerol and 0.05% bromophenol blue. Reaction mixtures were then run in 0.8% agarose slab horizontal gel containing ethidium bromide […], at constant current (25 mA for 15h), in 89 mM Tris-borate buffer and 2.5 mM EDTA pH 8.3. Bands were located by WV light (254 nm), photographed, and quantitated by microdensitometry. The correction coefficient 1.47±0.30 was used for decreased stainability of form I DNA vs form II DNA and form III DNA.

[3] = tested on: ΦX 174 DNA Plasmid (Form I); experiment: Cleavage of ΦX 174 DNA plasmid (form I), activation with H2O2; type: biochemical, phage ΦX 174; details: for S (single-strand breaks per DNA molecule) / form % I / form % II / form % III: DNA 3.5 nM, H2O2 1 mM
From the text: as §1, §2

[4] = tested on: CBA/J female mice, oxazolone-induced inflammatory ear edema; experiment: Delayed type hypersensitivity: oxazolone-induced ear edema; type: in vivo
From the text: CBA/J female mice (Jackson Labs, Bar Harbor, ME) 7 weeks of age were pre-sensitized with 3% oxazolone (Sigma Chemical Co., St. Louis, Mo.) in 99.9% acetone, on the abdomen. After 8 days, the mice were challenged with 1.2% oxazolone topically on one ear to induce an inflammatory edema. Either Structural Formula V, Structural Formula IV at a dose of 7 nmoles/ear each, or ethanol, i.e. vehicle control (eight mice per study group), was applied topically to the ear immediately after the oxazolone challenge. Ear edema was measured by comparing the tissue water content (the wet weight minus the dry weight) of the challenged ear to that of the control ear. The percent edema (% water in the right ear-left ear) in the vehicle control was 6.5% and 2.1% and 3.9% for Structural Formula V and Structural Formula IV, respectively at a dose of 7 nmoles/ear.

[5] = Superoxide dismutase activity, xanthine-xanthine oxidase / cytochrome C; type: biochemical; details: reciprocal of IC50; xanthine 60 μM, xanthine oxidase 0.009 units/ml, cytochrome C 27.8 μM
Experimental: Superoxide Dismutase Activity was measured by incubating the compound with a superoxide generating system (Xanthine, 60 μM-Xanthine Oxidase, 0.009 units/ml) and a detector molecule (Cytochrome C, 27.8 μM). Upon reacting with a molecule of superoxide, Cytochrome C undergoes a spectrum-shift which can be detected as an increase in absorbance at 550 nm. In this assay procedure, the reactant concentrations were adjusted to give a reaction rate close to 0.1 AU/min. at 2-3 min. after the reaction began. Addition of compounds with Superoxide Dismutase activity reduce the rate of absorbance change. Compounds were assayed at several concentrations (typically at 0, 2, 4, and 8 μM) and the resulting rates were graphed and fitted to a linear regression formula. The linear regression formula was then solved to determine the concentration of compound required to reduce the reaction rate to 50% of the rate without compound present (IC50).

CC[NH+](CC)CCNS(=O)(=O)c1c(C)cc(C)c(C2=C3C=CC4=[N+]3[Fe-]35[n]6c2ccc6C(c2c(C)cc(C)c(S(=O)(=O)NCC[NH+](CC)CC)c2C)=C2C=CC(=[N+]23)C(c2c(C)cc(C)c(S(=O)(=O)NCC[NH+](CC)CC)c2C)=c2ccc([n]25)=C4c2c(C)cc(C)c(S(=O)(=O)NCC[NH+](CC)CC)c2C)c1C.[Cl-].[Cl-].[Cl-].[Cl-].[Cl-] [Structural Formula V, meso-tetrakis[3-(N-(2-(N,N-diethylammonio)ethyl)aminosulfonyl)-2,4,6-trimethylphenyl]porphyrinato diaqua-iron (III) pentachloride]
PEROXIDASE Initial Rate [1]: 0.0443 change in absorbance per min.
S (single-strand breaks per DNA molecule) ([2]; compound 10 nM): 0.11 SSBs
form % I ([2]; compound 10 nM): 87%
form % II ([2]; compound 10 nM): 13%
form % III ([2]; compound 10 nM): 0%
S (single-strand breaks per DNA molecule) ([2]; compound 100 nM): 0.34 SSBs
form % I ([2]; compound 100 nM): 75%
form % II ([2]; compound 100 nM): 25%
form % III ([2]; compound 100 nM): 0%
S (single-strand breaks per DNA molecule) ([2]; compound 1 μM): 2.76 SSBs
form % I ([2]; compound 1 μM): 29%
form % II ([2]; compound 1 μM): 71%
form % III ([2]; compound 1 μM): 0%
S (single-strand breaks per DNA molecule) ([3]; compound 10 nM): 0.01 SSBs
form % I ([3]; compound 10 nM): 94%
form % II ([3]; compound 10 nM): 6%
form % III ([3]; compound 10 nM): 0%
S (single-strand breaks per DNA molecule) ([3]; compound 100 nM): 0 SSBs
form % I ([3]; compound 100 nM): 95%
form % II ([3]; compound 100 nM): 5%
form % III ([3]; compound 100 nM): 0%
S (single-strand breaks per DNA molecule) ([3]; compound 1 μM): 0.16 SSBs
form % I ([3]; compound 1 μM): 84%
form % II ([3]; compound 1 μM): 16%
form % III ([3]; compound 1 μM): 0%
DNA cleavage activity in H2O2 medium ([3]; H2O2 medium): does not exhibit significant DNA cleavage activity
effect on edema compared to vehicle ([4]; 7 nmoles/ear topically): effective in reducing the percentage of edema
percent edema (% water in the right ear-left ear) ([4]; 7 nmoles/ear topically immediately after oxazolone challenge, vehicle control 6.5%): 2.1%
Cyt C SOD 1/(IC50, μM) [5]: 0.067 µM⁻¹
